This note sets out measurements from US6936602B1, “Benzazepine derivatives, process for the preparation of the same and uses thereof” (Takeda Chemical Industries, Ltd., priority 1999, dated 2005).

Each structure is given as a SMILES string.

T1 sequence (P51681 whole entry): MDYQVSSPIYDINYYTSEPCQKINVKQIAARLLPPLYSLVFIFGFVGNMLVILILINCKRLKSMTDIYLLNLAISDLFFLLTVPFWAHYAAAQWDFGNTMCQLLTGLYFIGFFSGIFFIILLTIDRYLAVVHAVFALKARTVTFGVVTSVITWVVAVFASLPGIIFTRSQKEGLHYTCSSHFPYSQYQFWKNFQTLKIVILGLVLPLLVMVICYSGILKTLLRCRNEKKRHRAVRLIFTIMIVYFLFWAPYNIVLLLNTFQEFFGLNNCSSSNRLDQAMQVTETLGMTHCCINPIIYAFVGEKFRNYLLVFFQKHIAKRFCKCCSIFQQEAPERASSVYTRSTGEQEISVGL

One data set has as its target T1, human CCR5 (Homo sapiens, UniProt P51681).
T1 construct: expressed in transfected cells
The data set is described as follows: Evaluation of test compounds based on CCR5 antagonistic activity: inhibition of [125I]-RANTES binding to CCR5/CHO cells. As to conditions: Test Compound 1 μM, 100 pM [125I]-RANTES, room temperature for 40 minutes. The procedure: Cloning of CCR5 gene was carried out by a PCR method from human spleen cDNA. With using 0.5 ng of spleen cDNA (Toyobo, QUICK-Clone cDNA) as template, PCR was performed in DNA Thermal Cycler 480 (Perkin-Elmer) (reaction conditions: 30 cycles of 95° C. for 1 minute, 60° C. for 1 minute, and 75° C. for 5 minutes) by adding each 25 pmol of primers of a primer set, • SEQ ID NO.: 1 described in Test Example (1) of WO 99/32100 [length of sequence: 34; type of sequence: nucleic acid; strandedness: single; topology: straight; kind of sequence: other nucleic acid synthetic DNA, and • SEQ ID NO.: 2 described in Test Example (1) of WO 99/32100 [length of sequence: 34; type of sequence: nucleic acid; strandedness: single; topology: straight; kind of sequence: other nucleic acid synthetic DNA which were designed referring to nucleotide sequence of CCR5 gene reported by Samson et. al. (Biochemistry, 35(11), 3362-3367 (1996)) and by using TaKaRa EX Taq (Takara Shuzo). The resultant PCR product was subjected to agarose gel electrophoresis to collect about 1.0 kb DNA fragment, which was subjected to Original TA Cloning Kit (Funakoshi) to carry out cloning of CCR5 gene. (2) Preparation of Plasmid for Expression of Human CCR5
The plasmid obtained in the above (1) was digested with restriction enzymes XbaI (Takara Shuzo) and BamHI (Takara Shuzo) and subjected to agarose gel electrophoresis to collect about 1.0 kb DNA fragment.
The DNA fragment was mixed with plasmid pcDNA3.1 (Funakoshi) for expression in animal cells, said plasmid being digested with XbaI and BamHI, and they were ligated with DNA Ligation Kit Ver.2 (Takara Shuzo). The resulting plasmid was subjected to transformation of competent cell of E. coli JM109 (Takara Shuzo) to obtain plasmid pCKR5.
CHO-K1 cells were grown in 750 ml of tissue culture flask (Becton Dickinson) using Ham's F12 medium (Nihon Pharmaceutical) containing 10% fetal calf serum (Life Tech Oriental) and taken off with 0.5 g/L trypsin-0.2 g/L EDTA (Life Tech Oriental). The cells were washed with PBS (Life Tech Oriental), centrifuged (1000 rpm, 5 minutes), and suspended in PBS. With using Gene Pulser (Bio-Rad Laboratories), DNA was introduced into the cells under the conditions shown below. That is, to the cuvette of 0.4 cm gap were added 8×10^6 cells and 10 μg of plasmid pCKR5 for expression of human CCR5, and electroporation was carried out under 0.25 kV of voltage and 960 μF of capacitance. The cells were transferred into Ham's F12 medium containing 10% fetal calf serum, and cultivated for 24 hours. The cells were again taken off and centrifuged, and suspended in Ham's F12 medium containing 10% fetal calf serum and 500 μg/ml of geneticin (Life Tech Oriental). The suspension was diluted to give 10^4 cells/ml of the suspension, which was inoculated on a 96 well plate (Becton Dickinson) to give geneticin resistant cells.
The resulting geneticin resistant cells were cultivated in 96 well plate (Becton Dickinson), and cells expressing CCR5 were selected from the geneticin resistant cells. That is, in assay buffer (Ham's F12 medium containing 0.5% BSA and 20 mM HEPES (Wako Pure Chemical, pH7.2)) to which was added 200 pM of [^125I]-RANTES (Amersham) as a ligand, a binding reaction was carried out at room temperature for 46 minutes, and the buffer was washed with cooled PBS. To the buffer was added 50 μl/well of 1M NaOH, and the mixture was stirred. Radioactivity was determined with a y-counter to select CCR5/CHO cells which specifically bind to the ligand.
The CCR5/CHO cells were inoculated on 96 well microplate (5×10^4 cells/well) and cultivated for 24 hours. The medium was removed by means of suction, and to each well was added an assay buffer containing Test Compound (1 μM) and then 100 pM of [^125I]-RANTES (Amersham) as a ligand. A binding assay was carried out at room temperature for 40 minutes, and an assay buffer was removed by means of suction. […]
For `CCCCOCCOc1ccc(-c2ccc3c(c2)C=C(C(=O)Nc2ccc(CN(C)C4CCOCC4)cc2)CCN3CC(C)C)cc1` [Compound 85], the “Inhibitory Rate (%)” value was determined as 100%. Same read-out and setting: in the case of `CCCCOCCOc1ccc(-c2ccc3c(c2)C=C(C(=O)Nc2ccc(CN(C)C4CCOCC4)cc2)CCN3Cc2cncs2)cc1` [Compound 98] it was 100%.

Still in this data set, the particulars now being: Test Compound 1 μM, 100 pM [125I]-RANTES, room temperature for 40 minutes, read-out: Inhibitory Rate (%).
Take `CCOCCCOc1ccc(-c2ccc3c(c2)C=C(C(=O)Nc2ccc(CN(C)C4CCOCC4)cc2)CCN3C=O)cc1` [Compound 2, 7-[4-(3-ethoxypropoxy)phenyl]-1-formyl-N-[4-[[N-methyl-N-(tetrahydro-2H-pyran-4-yl)amino]methyl]phenyl]-2,3-dihydro-1H-1-benzazepine-4-carboxamide]: the inhibition at 1 µM was 96%.

Take `CCOc1cc(-c2ccc3c(c2)C=C(C(=O)Nc2ccc(CN(C)C4CCOCC4)cc2)CCN3C=O)ccc1OCCOC(C)C` [Compound 23, 7-[3-ethoxy-4-(2-propoxy)ethoxyphenyl]-1-formyl-N-[4-[[N-methyl-N-(tetrahydro-2H-pyran-4-yl)amino]methyl]phenyl]-2,3-dihydro-1H-1-benzazepine-4-carboxamide]: the inhibition at 1 µM came out at 97%. In the case of `CCCCOCCOc1ccc(-c2ccc3c(c2)C=C(C(=O)Nc2ccc(CN(C)C4CCOCC4)cc2)CCN3Cc2c(C)noc2C)cc1` [Compound 71, 7-(4-butoxyethoxyphenyl)-1-[(3,5-dimethylisoxazol-4-yl)methyl]-N-[4-[[N-methyl-N-(tetrahydropyran-4-yl)amino]methyl]phenyl]-2,3-dihydro-1-benzazepine-4-carboxamide], the inhibition at 1 µM was 100%.

Turning to `CCCCOCCOc1ccc(-c2ccc3c(c2)C=C(C(=O)Nc2ccc(CN(C)C4CCCOC4)cc2)CCN3Cc2cc(C)ns2)cc1` (stereo not drawn) [Compound 77, 7-(4-butoxyethoxyphenyl)-1-[(3-methylisothiazol-5-yl)methyl]-N-[4-[[N-methyl-N-(tetrahydropyran-5-yl)amino]methyl]phenyl]-2,3-dihydro-1-benzazepine-4-carboxamide], the inhibition at 1 µM stood at 97%. On the same count and under the same terms, the figure for `CCCCOCCOc1ccc(-c2ccc3c(c2)C=C(C(=O)Nc2ccc(CN(C)C4CCCOC4)cc2)CCN3Cc2cnn(CC)c2)cc1` (stereo not drawn) [Compound 79, 7-(4-butoxyethoxyphenyl)-1-[(1-ethylpyrazol-4-yl)methyl]-N-[4-[[N-methyl-N-(tetrahydropyran-5-yl)amino]methyl]phenyl]-2,3-dihydro-1-benzazepine-4-carboxamide] is 100%; for `CCCOCCOc1ccc(-c2ccc3c(c2)C=C(C(=O)Nc2ccc(CN(C)C4CCOCC4)cc2)CCN3CC(C)C)cc1` [Compound 84, 1-isobutyl-N-[4-[N-methyl-N-(tetrahydropyran-4-yl)aminomethyl]phenyl]-7-[4-(2-propoxyethoxy)phenyl]-2,3-dihydro-1-benzazepine-4-carboxamide] it is 97%; for `CCCCOCCOc1ccc(-c2ccc3c(c2)C=C(C(=O)Nc2ccc(CN(C)C4CCOCC4)cc2)CCN3Cc2nnn(C)n2)cc1` [Compound 102, 7-[4-(2-butoxyethoxy)phenyl]-N-[4-[N-methyl-N-(tetrahydropyran-4-yl)aminomethyl]phenyl]-1-(2-methyltetrazol-5-ylmethyl)-2,3-dihydro-1-benzazepine-4-carboxamide] it is 100%. Same read-out and setting: the figure for `CCCCOCCOc1ccc(-c2ccc3c(c2)C=C(C(=O)Nc2ccc(CN(C)C4CCOCC4)cc2)CCN3Cc2nnn(CC)n2)cc1` [Compound 112, 7-[4-(2-butoxyethoxy)phenyl]-1-(2-ethyltetrazol-5-ylmethyl)-N-[4-[N-methyl-N-(tetrahydropyran-4-yl)aminomethyl]phenyl]-2,3-dihydro-1-benzazepine-4-carboxamide] is 100%.

Test system in another data set: not given
Experiment: not given
Details: not given
Turning to `CCOCCCOc1ccc(-c2ccc3c(c2)C=C(C(=O)Nc2ccc(CN(C)C4CCOCC4)cc2)CCN3C=O)cc1` [Compound 2, 7-[4-(3-ethoxypropoxy)phenyl]-1-formyl-N-[4-[[N-methyl-N-(tetrahydro-2H-pyran-4-yl)amino]methyl]phenyl]-2,3-dihydro-1H-1-benzazepine-4-carboxamide], the melting point (usually the temperature, or range, at which the solid turns liquid) was 166 to 169 °C. `CCOc1cc(-c2ccc3c(c2)C=C(C(=O)Nc2ccc(CN(C)C4CCOCC4)cc2)CCN3C=O)ccc1OCCOC(C)C` [Compound 23, 7-[3-ethoxy-4-(2-propoxy)ethoxyphenyl]-1-formyl-N-[4-[[N-methyl-N-(tetrahydro-2H-pyran-4-yl)amino]methyl]phenyl]-2,3-dihydro-1H-1-benzazepine-4-carboxamide] showed a melting point of 117 to 119 °C.
